Reference: article PMC11277018, “Recombinant Expression and Characterization of a Novel Thermo-Alkaline Lipase with Increased Solvent Stability from the Antarctic Thermophilic Bacterium Geobacillus sp. ID17” (International Journal of Molecular Sciences, 2024)
Where two headings read alike, the source gives them in different places. One block for each compound: values may come before it.

Test system: T1, Lip7
T1 construct: theoretical 43 kDa, 47 kDa by SEC, 37 kDa by SDS-PAGE; monomer
Assay: spectrophotometric p-nitrophenol release, allosteric sigmoidal fit
Type: biochemical, Geobacillus sp. ID17
Settings: 25 °C, pH 8.0, 50 mM potassium phosphate, read-out: K1/2
Description: spectrophotometric p-nitrophenol release, allosteric sigmoidal fit on Lip7

Km (2% (v/v) Triton X-100 (mixed micelles; interfacial), Hill n 1.8 ± 0.4): 1700 ± 400 µM
Compound: CCCCCCCCCCCC(=O)Oc1ccc([N+](=O)[O-])cc1 [p-nitrophenyl laurate]

Km (2% (v/v) Triton X-100, Hill n 2.4 ± 0.8): 1600 ± 300 µM
Compound: CCCCCCCC(=O)Oc1ccc([N+](=O)[O-])cc1 [p-nitrophenyl octanoate]

Km (2% (v/v) Triton X-100, Hill n 1.9 ± 0.5): 3400 ± 700 µM
Compound: CC(=O)Oc1ccc([N+](=O)[O-])cc1 [p-nitrophenyl acetate]

Km (2% (v/v) Triton X-100, Hill n 3.2 ± 0.6): 1400 ± 100 µM
Compound: CCCCCCCCCCCCCC(=O)Oc1ccc([N+](=O)[O-])cc1 [p-nitrophenyl myristate]

Km (2% (v/v) Triton X-100, Hill n 3.1 ± 1.4): 2200 ± 300 µM
Compound: CCCCCCCCCC(=O)Oc1ccc([N+](=O)[O-])cc1 [p-nitrophenyl decanoate]
